Source: patent publication US20020086814A1 (priority 2000, published 2002)

Experiments:
[1] = system: Vero cells; format: cell-based
[2] = system: Vero cells; format: cell-based; remark: listed apart in the source

## chlorin e6 [free Ce6]
[1]
  LD50 of photodynamic cell killing, expressed in molar concentration of Ce6: 1.2 nmol/mL
[2]
  Cell-associated Ce6-specific fluorescence: no detectable Ce6-specific fluorescence
